Results: article PMC9934367, “Functional impact of subunit composition and compensation on Drosophila melanogaster nicotinic receptors–targets of neonicotinoids” (PLOS Genetics, 2023)

Tested on: D. melanogaster nAChRs
Assay: Comparison of agonist activity between nAChRs expressed in X. laevis oocytes (one-way ANOVA, Kruskal-Wallis)
Assay type: cell-based
In short: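 Agonist pEC50 values, derived from Hill fits of normalised peak currents, were compared across receptors by one-way ANOVA or Kruskal-Wallis. Currents came from oocytes clamped at −100 mV and perfused with atropine-containing saline (0.5 μM), 3–4 days after cRNA injection of fly nAChR subunits and co-factors.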

[1] = Dα1/Dα2/Dα3/Dβ1/Dβ2 vs. Dα1/Dα2/Dβ1/Dβ2/Dβ3
[2] = Dα1/Dα2/Dα3/Dβ1/Dβ2 vs. Dα1/Dα3/Dα4/Dβ1/Dβ2
[3] = Dα1/Dα2/Dα3/Dβ1/Dβ2 vs. Dα1/Dα3/Dβ1/Dβ2/Dβ3
[4] = Dα1/Dα2/Dα3/Dβ1/Dβ2 vs. Dα2/Dα3/Dα4/Dβ1/Dβ2
[5] = Dα1/Dα2/Dα3/Dβ1/Dβ2 vs. Dα2/Dα3/Dβ1/Dβ2/Dβ3
[6] = Dα1/Dα2/Dα3/Dβ1 vs. Dα1/Dα2/Dα3/Dβ1/Dβ2
[7] = Dα1/Dα2/Dα3/Dβ1 vs. Dα1/Dα2/Dβ1/Dβ2
[8] = Dα1/Dα2/Dα3/Dβ1 vs. Dα1/Dα3/Dβ1/Dβ2
[9] = Dα1/Dα2/Dα3/Dβ1 vs. Dα1/Dβ1/Dβ2
[10] = Dα1/Dα2/Dα3/Dβ1 vs. Dα2/Dα3/Dβ1/Dβ2
[11] = Dα1/Dα2/Dα3/Dβ1 vs. Dα3/Dβ1/Dβ2
[12] = Dα1/Dα2/Dβ1/Dβ2 vs. Dα1/Dα2/Dα3/Dβ1/Dβ2
[13] = Dα1/Dα2/Dβ1/Dβ2 vs. Dα2/Dα3/Dβ1/Dβ2
[14] = Dα1/Dα2/Dβ1 vs. Dα1/Dα2/Dα3/Dβ1
[15] = Dα1/Dα2/Dβ1 vs. Dα1/Dα2/Dα3/Dβ1/Dβ2
[16] = Dα1/Dα2/Dβ1 vs. Dα1/Dα2/Dβ1/Dβ2
[17] = Dα1/Dα2/Dβ1 vs. Dα1/Dα3/Dβ1/Dβ2
[18] = Dα1/Dα2/Dβ1 vs. Dα2/Dα3/Dβ1/Dβ2
[19] = Dα1/Dα3/Dβ1/Dβ2 vs. Dα1/Dα2/Dα3/Dβ1/Dβ2
[20] = Dα1/Dα3/Dβ1/Dβ2 vs. Dα1/Dα2/Dβ1/Dβ2
[21] = Dα1/Dα3/Dβ1/Dβ2 vs. Dα2/Dα3/Dβ1/Dβ2
[22] = Dα1/Dα3/Dβ1 vs. Dα1/Dα2/Dα3/Dβ1
[23] = Dα1/Dα3/Dβ1 vs. Dα1/Dα2/Dα3/Dβ1/Dβ2
[24] = Dα1/Dα3/Dβ1 vs. Dα1/Dα2/Dβ1/Dβ2
[25] = Dα1/Dα3/Dβ1 vs. Dα1/Dα3/Dβ1/Dβ2
[26] = Dα1/Dα3/Dβ1 vs. Dα2/Dα3/Dβ1/Dβ2
[27] = Dα1/Dβ1/Dβ2 vs. Dα1/Dα2/Dα3/Dβ1/Dβ2
[28] = Dα1/Dβ1/Dβ2 vs. Dα1/Dα2/Dβ1/Dβ2

Which results are given for O=[N+]([O-])NC1=NCCN1Cc1ccc(Cl)nc1 [Imidacloprid, imidacloprid]?
Difference of Imax values, nAChRs compared (Dα1/Dα2/Dα3/Dβ1/Dβ2 vs. Dα1/Dα2/Dα4/Dβ1/Dβ2): -0.030; Difference of Imax values, nAChRs compared [1]: 0.062; Difference of pEC50 values, nAChRs compared [1]: 0.21; Difference of Imax values, nAChRs compared [2]: 0.041; Difference of pEC50 values, nAChRs compared [2]: -0.83; Difference of Imax values, nAChRs compared [3]: 0.002; Difference of pEC50 values, nAChRs compared [3]: -1.25; Difference of Imax values, nAChRs compared [4]: 0.115; Difference of pEC50 values, nAChRs compared [4]: -0.93; Difference of Imax values, nAChRs compared [5]: 0.121; Difference of pEC50 values, nAChRs compared [5]: -1.28; Difference of Imax values [6]: -0.048; Difference of pEC50 values [6]: 0.61; Difference of Imax values [7]: -0.071; Difference of pEC50 values [7]: 0.63; Difference of Imax values [8]: -0.236; Difference of pEC50 values [8]: -0.44; Difference of Imax values [9]: 0.018; Difference of pEC50 values [9]: 0.09; Difference of Imax values [10]: -0.031; Difference of pEC50 values [10]: 0.08; Difference of Imax values [11]: 0.055; Difference of pEC50 values [11]: -1.20; Difference of Imax values [12]: 0.023; Difference of pEC50 values [12]: -0.02; Difference of Imax values [13]: 0.040; Difference of pEC50 values [13]: -0.55; Difference of Imax values [14]: -0.063; Difference of pEC50 values [14]: -0.37; Difference of Imax values [15]: -0.111; Difference of pEC50 values [15]: 0.24; Difference of Imax values [16]: -0.134; Difference of pEC50 values [16]: 0.26; Difference of Imax values [17]: -0.299; Difference of pEC50 values [17]: -0.81; Difference of Imax values (Dα1/Dα2/Dβ1 vs. Dα1/Dβ1/Dβ2): -0.045; Difference of pEC50 values (Dα1/Dα2/Dβ1 vs. Dα1/Dβ1/Dβ2): -0.28; Difference of Imax values (Dα1/Dα2/Dβ1 vs. Dα2/Dα3/Dβ1): -0.070; Difference of pEC50 values (Dα1/Dα2/Dβ1 vs. Dα2/Dα3/Dβ1): -0.17; Difference of Imax values [18]: -0.094; Difference of pEC50 values [18]: -0.29; Difference of Imax values (Dα1/Dα2/Dβ1 vs. Dα3/Dβ1/Dβ2): -0.008; Difference of pEC50 values (Dα1/Dα2/Dβ1 vs. Dα3/Dβ1/Dβ2): -1.57; Difference of Imax values [19]: 0.188; Difference of pEC50 values [19]: 1.05; Difference of Imax values [20]: 0.165; Difference of pEC50 values [20]: 1.07; Difference of Imax values [21]: 0.205; Difference of pEC50 values [21]: 0.52; Difference of Imax values [22]: 0.076; Difference of pEC50 values [22]: 0.50; Difference of Imax values [23]: 0.028; Difference of pEC50 values [23]: 1.11; Difference of Imax values (Dα1/Dα3/Dβ1 vs. Dα1/Dα2/Dβ1): 0.139; Difference of pEC50 values (Dα1/Dα3/Dβ1 vs. Dα1/Dα2/Dβ1): 0.87; Difference of Imax values [24]: 0.005; Difference of pEC50 values [24]: 1.13; Difference of Imax values [25]: -0.160; Difference of pEC50 values [25]: 0.06; Difference of Imax values (Dα1/Dα3/Dβ1 vs. Dα1/Dβ1/Dβ2): 0.094; Difference of pEC50 values (Dα1/Dα3/Dβ1 vs. Dα1/Dβ1/Dβ2): 0.59; Difference of Imax values (Dα1/Dα3/Dβ1 vs. Dα2/Dα3/Dβ1): 0.069; Difference of pEC50 values (Dα1/Dα3/Dβ1 vs. Dα2/Dα3/Dβ1): 0.70; Difference of Imax values [26]: 0.045; Difference of pEC50 values [26]: 0.58; Difference of Imax values (Dα1/Dα3/Dβ1 vs. Dα3/Dβ1/Dβ2): 0.131; Difference of pEC50 values (Dα1/Dα3/Dβ1 vs. Dα3/Dβ1/Dβ2): -0.70; Difference of Imax values [27]: -0.066; Difference of pEC50 values [27]: 0.52; Difference of Imax values [28]: -0.089; Difference of pEC50 values [28]: 0.54
